Measurements as given in PMC7880572 (ACS Chemical Neuroscience, 2021).
Where two headings read alike, the source gives them in different places.

What was measured:
[1] = target: T1, esBChE (BChE from equine serum) (Equus caballus, UniProt P81908); experiment: biochemical; details: mean ± SEM, n = 3
T1 construct: BChE from horse serum (13 U/mL); purchased Sigma-Aldrich, Milan, Italy; host or cells: horse serum

hMAO A = target: T2, hMAO A (Homo sapiens, UniProt P21397); experiment: MAO A inhibition (fluorimetric kynuramine assay); assay type: biochemical; details: mean ± SEM, n = 3
T2 construct: purchased Sigma-Aldrich
T2 sequence (P21397 1-527): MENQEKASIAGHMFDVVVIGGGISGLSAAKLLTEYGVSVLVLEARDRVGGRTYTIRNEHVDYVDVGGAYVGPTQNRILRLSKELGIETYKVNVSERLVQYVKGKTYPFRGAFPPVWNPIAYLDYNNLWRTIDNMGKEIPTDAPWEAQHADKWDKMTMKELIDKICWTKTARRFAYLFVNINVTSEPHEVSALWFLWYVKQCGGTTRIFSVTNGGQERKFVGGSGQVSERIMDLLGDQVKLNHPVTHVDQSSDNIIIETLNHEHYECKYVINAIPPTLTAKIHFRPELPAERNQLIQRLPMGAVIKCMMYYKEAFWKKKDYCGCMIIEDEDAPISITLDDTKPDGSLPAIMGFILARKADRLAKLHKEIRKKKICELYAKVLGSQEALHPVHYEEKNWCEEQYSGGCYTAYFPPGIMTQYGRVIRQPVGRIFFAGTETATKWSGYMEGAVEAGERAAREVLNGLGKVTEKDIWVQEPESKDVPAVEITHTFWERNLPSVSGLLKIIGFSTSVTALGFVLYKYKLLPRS

MAO B [2] = target: T3, MAO B (Homo sapiens, UniProt P27338); experiment: MAO B inhibition (fluorimetric kynuramine assay, inhibition kinetics); assay type: biochemical; details: for IC50: mean ± SEM, n = 3
T3 construct: purchased Sigma-Aldrich
T3 sequence (P27338 1-520): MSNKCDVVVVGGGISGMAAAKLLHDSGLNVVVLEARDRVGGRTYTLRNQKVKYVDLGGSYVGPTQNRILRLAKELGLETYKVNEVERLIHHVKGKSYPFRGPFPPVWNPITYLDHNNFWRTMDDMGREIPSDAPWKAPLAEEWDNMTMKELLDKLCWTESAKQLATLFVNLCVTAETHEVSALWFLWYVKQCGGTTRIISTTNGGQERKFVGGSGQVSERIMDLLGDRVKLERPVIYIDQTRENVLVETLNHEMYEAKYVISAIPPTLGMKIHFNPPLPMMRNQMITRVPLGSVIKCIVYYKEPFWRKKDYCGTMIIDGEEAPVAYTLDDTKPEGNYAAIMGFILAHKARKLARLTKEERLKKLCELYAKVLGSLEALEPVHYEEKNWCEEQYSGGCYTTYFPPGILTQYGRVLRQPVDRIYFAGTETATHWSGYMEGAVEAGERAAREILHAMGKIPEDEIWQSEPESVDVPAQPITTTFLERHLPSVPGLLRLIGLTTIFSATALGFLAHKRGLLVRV

[3] = target: T4, eeAChE (AChE from electric eel) (Electrophorus electricus, UniProt O42275); experiment: biochemical; details: mean ± SEM, n = 3
T4 construct: purchased Sigma-Aldrich, Milan, Italy
T4 sequence (O42275 24-633): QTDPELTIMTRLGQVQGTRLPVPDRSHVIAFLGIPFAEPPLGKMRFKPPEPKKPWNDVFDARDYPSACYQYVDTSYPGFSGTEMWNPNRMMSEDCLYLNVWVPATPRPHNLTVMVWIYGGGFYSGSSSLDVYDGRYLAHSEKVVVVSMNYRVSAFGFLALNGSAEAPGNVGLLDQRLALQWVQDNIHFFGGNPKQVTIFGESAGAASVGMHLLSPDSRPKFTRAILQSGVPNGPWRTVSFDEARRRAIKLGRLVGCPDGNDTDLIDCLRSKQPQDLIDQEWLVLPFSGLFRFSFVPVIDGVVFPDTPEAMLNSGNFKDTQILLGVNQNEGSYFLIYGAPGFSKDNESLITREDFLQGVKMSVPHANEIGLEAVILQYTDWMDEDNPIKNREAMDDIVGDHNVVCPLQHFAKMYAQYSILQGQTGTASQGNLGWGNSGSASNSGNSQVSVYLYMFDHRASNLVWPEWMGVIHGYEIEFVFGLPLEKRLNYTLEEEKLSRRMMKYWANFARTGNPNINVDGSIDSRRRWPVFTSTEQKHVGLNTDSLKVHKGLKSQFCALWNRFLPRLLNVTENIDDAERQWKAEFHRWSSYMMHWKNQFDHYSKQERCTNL

R3 tau sequence = target: T5, R3 tau sequence (Homo sapiens, UniProt P10636); experiment: Inhibition of R3 aggregation (ThT fluorescence); assay type: biochemical; details: R3 25 μM, 4 h at 37 °C; mean of two independent experiments
T5 construct: The 30-amino acid peptide (V306-Q336) R3; purchased Bachem, Bubendorf, Switzerland
T5 sequence (P10636 623-653 limits assumed): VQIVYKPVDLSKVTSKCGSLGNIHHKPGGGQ
Text: . The 30-amino acid peptide (V306-Q336) R3 is a high-repeated domain containing the PHF6 sequence and present in all tau isoforms.[62] Its high propensity to self-aggregate in buffered solutions, even in the absence of aggregation inducers such as heparin,[63] makes R3 a reliable surrogate of full-length tau protein for in vitro experiments. In our assay protocol, the commercial R3 peptide was pretreated with 1,1,1-trifluoroethanol (TFE) overnight in order to dissolve any preformed aggregate and reestablish the random coil arrangement, then diluted in PBS at the test concentration of 25 μM.
A stock solution of 1.5 mM R3 (trifluoroacetate salt; Bachem, Bubendorf, Switzerland) was prepared in TFE and left overnight at room temperature. […] . […] IC50 values were calculated by means of Prism as the mean of two independent experiments.

Aβ40 [4] = target: T6, Aβ40 (Homo sapiens, UniProt P05067); experiment: Inhibition of self-induced Aβ40 aggregation (ThT fluorescence, HFIP); assay type: biochemical; details: Aβ40 30 μM, 2 h at 25 °C, PBS 2% HFIP; mean ± SEM, n = 3; read-out: Aβ40 aggr IC50
T6 construct: samples of Aβ40 (30 μM) were coincubated for 2 h at 25 °C with test molecules; purchased EzBiolab, Carmel, IN, USA
T6 sequence (P05067 672-711 limits assumed): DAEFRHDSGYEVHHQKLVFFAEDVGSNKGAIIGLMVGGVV
Description: In vitro inhibition of Aβ40 aggregation was assessed following a previously reported thioflavin T (ThT) fluorescence-based method involving the use of hexafluoroisopropanol (HFIP) as aggregation enhancer. […].
In vitro inhibition assay of Aβ40 aggregation has been previously reported[41] and adapted to a 96-well plate platform.
(§1) After incubation in 96-well black, nonbinding microplates (Greiner Bio-One GmbH, Frickenhausen, Germany), thioflavin T (25 μM) was added and fluorimetric reads (ex 440, em 485 nm) were performed in a multiplate reader Infinite M1000 Pro (Tecan, Cernusco sul Naviglio, Italy). Experiments were run in triplicate. Results were expressed by statistical analysis while IC50 values were obtained by nonlinear regression using Prism software (GraphPad Prism version 5.00 for Windows, GraphPad Software, San Diego, CA, USA).

PHF6 tau sequence = PHF6 tau sequence (Homo sapiens, UniProt P10636); experiment: Inhibition of PHF6 aggregation (ThT fluorescence); details: for inhibition at 10 µM: read-out: PHF6 aggregation inhibition
[5] = literature reported PAMPA-BBB permeability; ref 1 (Di et al., 2003); cited from earlier work
in vitro = details: PAMPA, pH 7.4
Aβ40 [6] = target: T6, Aβ40; parameters: method as in PMID 25924599; details: first series; cited from earlier work
cerebellar granule cells = experiment: In vitro cytotoxicity (MTT); assay type: cell-based; details: CGCs, compound 10 μM, 48 h, mean ± SEM
Description: . […] For a more meaningful assessment of the value of the present compounds, the issue of their toxicity, in comparison to established drugs for AD, should deserve further investigation.
Cerebellar granule cells were prepared from 8-day-old Sprague Dawley rats as described previously.[66] Cells were studied from the 6th to the 12th day in vitro. The experimental procedures and care of the animals were performed in compliance with the Directive of the EU Parliament and Council of September 22, 2010 (2010/63/EU) and were approved by the Italian Ministry of Health (COD. 75F11.N.6DX) in accordance with D.M. 116/1992. All efforts were made in order to minimize animal suffering and the number of animals necessary to obtain reliable results.
[…]. Cells were maintained in 5% CO2 at 37 °C. The cell viability was assessed by the MTT assay 48 h after the treatment. […]. The survival rates of viable cells were calculated by comparing the optical absorbance of treated samples with that of the untreated controls. All experiments were repeated at least three times independently, and data are expressed as the mean ± SEM.

Aβ42 = target: T7, Aβ42 (Homo sapiens, UniProt P05067); experiment: Inhibition of Aβ42 fibrillation by ThT fluorescence assay; assay type: biochemical; details: Aβ42 30 μM, 37 °C, 48 h
T7 construct: purchased EzBiolab, Carmel, IN, USA
T7 sequence (P05067 672-713 limits assumed): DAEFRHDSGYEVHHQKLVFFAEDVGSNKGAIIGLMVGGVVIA
Description: Its high propensity to self-aggregate allows a fast execution of aggregation assays without the need of aggregation enhancers as for Aβ40.
Quercetin (QUR) was used as reference compound.
as §1

[7] = based on the PAMPA-BBB classification range from Di et al.
AChE = system: AChE; parameters: method as in PMID 25924599; details: first series; cited from earlier work
MAO B [8] = target: T3, MAO B; experiment: MAO B kynuramine assay in spectrophotometric mode (4-hydroxyquinoline absorbance at 316 nm), incl. time course; assay type: biochemical
BChE = system: BChE; parameters: method as in PMID 25924599; details: first series; cited from earlier work

T1 sequence (P81908 whole entry): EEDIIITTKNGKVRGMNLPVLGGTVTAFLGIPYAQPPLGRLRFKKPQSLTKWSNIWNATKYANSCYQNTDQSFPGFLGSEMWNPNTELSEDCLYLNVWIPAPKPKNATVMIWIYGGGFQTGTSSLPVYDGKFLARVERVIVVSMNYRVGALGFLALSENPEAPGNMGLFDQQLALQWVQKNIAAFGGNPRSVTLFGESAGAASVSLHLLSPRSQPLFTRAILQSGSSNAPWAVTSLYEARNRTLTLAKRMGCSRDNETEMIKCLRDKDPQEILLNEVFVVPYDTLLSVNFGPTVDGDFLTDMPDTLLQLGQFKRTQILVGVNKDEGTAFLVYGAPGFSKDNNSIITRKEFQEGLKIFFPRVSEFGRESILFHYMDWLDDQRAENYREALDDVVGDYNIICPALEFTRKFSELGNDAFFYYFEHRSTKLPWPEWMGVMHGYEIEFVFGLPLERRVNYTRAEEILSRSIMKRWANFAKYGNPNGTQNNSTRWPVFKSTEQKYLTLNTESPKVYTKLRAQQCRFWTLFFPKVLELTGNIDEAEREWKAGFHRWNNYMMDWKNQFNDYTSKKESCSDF

O=C1C(Cl)=C(NCCc2ccccc2)C(=O)c2ccccc21 [Compound 3]
inhibition at 10 µM [1]: 24% | inhibition at 10 µM (hMAO A; at 10 μM): 41% | IC50 (MAO B [2]): 0.031 ± 0.001 µM | IC50 [3]: 7.9 ± 0.8 µM | IC50 (R3 tau sequence): 1.19 ± 0.44 µM | IC50 (Aβ40 [4]): 4.4 ± 0.3 µM | IC50 (PHF6 tau sequence): 4.96 ± 0.75 µM | inhibition at 10 µM (PHF6 tau sequence): > 95%

O=C1Nc2ccc(Cl)cc2C(c2ccccc2)=NC1O (stereo not drawn) [Oxazepam]
Pe,rep [5]: 10 10-6 cm/s | Papp (in vitro): 9.1 ×10⁻⁶ cm/s

CCN(CC)CCCNc1cccc2c1C(=O)c1ccccc1C2=O [XIII]
IC50 (Aβ40 [6]): 61 µM

O=C1c2ccccc2C(=O)c2c(NCCc3ccccc3)cccc21 [Compound 11, 1-(Phenethylamino)-9,10-anthraquinone]
IC50 [1]: 1.7 ± 0.3 µM | IC50 (hMAO A): 3.1 ± 0.3 µM | IC50 (MAO B [2]): 0.57 ± 0.02 µM | cell viability vs control (%) (cerebellar granule cells): 85 ± 15% | IC50 [3]: 7.3 ± 0.7 µM | IC50 (R3 tau sequence): 0.36 ± 0.02 µM | Papp at 16 h (in vitro): 24.7 ± 2.2 ×10⁻⁶ cm/s | IC50 (Aβ40 [4]): 2.1 ± 0.2 µM | inhibition of Aβ42 aggregation (activity profile) (Aβ42; 100 and 5 μM): best activity profile | IC50 (PHF6 tau sequence): 1.78 ± 0.23 µM | inhibition at 10 µM (PHF6 tau sequence): > 95% | CNS prediction [7]: CNS+

O=C1c2ccccc2C(=O)c2c(NC[C@@H]3CCCN4CCCC[C@H]34)cccc21 [IX]
IC50 (Aβ40 [6]): 6.4 µM | IC50 (AChE): 0.84 µM

O=C1C(Cl)=C(NCc2ccccc2)C(=O)c2ccccc21 [Compound 2]
inhibition at 10 µM [1]: 26% | IC50 (hMAO A): 3.6 ± 0.3 µM | increase of Ki for higher coincubation times (MAO B [2]; coincubation up to 2 h vs 5 min): about 20 fold | MAO B inhibition mechanism (MAO B [2]; coincubation with enzyme limited to 5 min): competitive inhibition | MAO B inhibition mechanism (MAO B [2]; higher coincubation times (up to 2 h)): noncompetitive | IC50 (MAO B [2]): 0.0077 ± 0.0013 µM | selectivity MAO B versus MAO A (MAO B [2]; ratio of inhibitory activities): 473 fold | MAO B enzymatic activity in time course (MAO B [8]; 10 nM inhibitor, absorption of 4-hydroxyquinoline at 316 nm): still present even after 3 h | IC50 (MAO B [8]; absorbance of 4-hydroxyquinoline at 316 nm): 0.018 µM | cell viability vs control (%) (cerebellar granule cells): 89 ± 14% | IC50 [3]: 9.2 ± 0.6 µM | Papp at 16 h (in vitro): 28.4 ± 2.1 ×10⁻⁶ cm/s | IC50 (Aβ40 [4]): 3.2 ± 0.8 µM | inhibition of Aβ42 aggregation (Aβ42; lower concentration used (5 μM)): strong inhibitor | inhibition at 10 µM (PHF6 tau sequence): 91% | CNS prediction [7]: CNS+

O=C1C(Cl)=C(NCCCSC[C@@H]2CCCN3CCCC[C@H]23)C(=O)c2ccccc21 [VII]
IC50 (BChE): 4.1 µM | IC50 (Aβ40 [6]): 61 µM

Cc1nnc2n1-c1ccc(Cl)cc1C(c1ccccc1)=NC2 [Alprazolam]
Pe,rep [5]: 5.4 10-6 cm/s | Papp (in vitro): 4.8 ×10⁻⁶ cm/s
